Consider one compound from patent US20230131339A1, “EPI-X4 BASED PEPTIDES AND DERIVATIVES THEREOF” (Universitaet Ulm, priority 2020, published 2023).

A short description of data set [1]: Stability assay in human S9 liver fractions. To be noted: 2 hours, with cofactors.
Description: Further, the stability of peptides in human S9 liver fractions (in the presence of cofactors) was tested (FIG. 12). […] To simulate and predict hepatic metabolic clearance, peptides were added to human S9 liver fractions. […] For each peptide, three independent experiments were performed.
Stability assay in human S9 liver fractions. Pooled human liver S9 fractions were obtained from Thermo Fisher Scientific at a total protein concentration of 20 mg/ml. Fractions were stored in 25 μl aliquots at −80° C. For stability experiments, they were diluted to a final concentration of 0.5 mg/ml in Tris buffer. Cofactors (or buffer) were added immediately before start of the experiment (NADPH: 1 mM, UDPGA: 0.5 mM, GSH: 2.5 mM, PAPS: 0.05 mg/ml, Sigma Aldrich). The reaction was started by adding peptides or compounds at a concentration of 20 μM to the mixture and gentle agitation at 37° C. Determination of enzymatic stability was performed as described for plasma.
Data set [2] concerns CXCL12-induced ERK signaling. Put plainly: ERK/AKT signaling assay in SupT1 cells: ERK phosphorylation. In kind it is cell-based. The conditions noted are these: 1 μM. The method, boiled down: (§1)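 SupT1 cells in 1% FCS medium preincubated 15 min at 37 °C with compound, then stimulated 2 min with CXCL12 (100 ng/ml final). PFA-fixed, methanol-permeabilized cells stained for phospho-ERK1/2 (Tyr204/Tyr187) or phospho-AKT (Ser473) and read by flow cytometry; two or three independent experiments in triplicate.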

Data set [3] has as its system WM cells. Put plainly: Migration of WM cells along a CXCL12 gradient. In kind it is cell-based. The conditions noted are these: with or without S338X mutation. An excerpt:
(§2) Experimental data support the efficiency of the claimed peptide derivatives against the diseases mentioned above. At the example of JM #21 (SEQ ID NO.: 23) it could be shown that the peptides counteract growth and migration in vitro and in vivo of Acute Myeloid Leukemia (AML) cells as well as primary patient material and Waldenström's Macroglobulinemia (WM) cells harboring different WHIM-like CXCR4 mutations. This was accompanied by intrinsic changes suppressing oncogenic MAP kinase signaling of AML and WM cells.

Data set [4] relates to CXCR4 12G5 epitope of WM cells. As to the kind of experiment: Blocking of the CXCR4 12G5 epitope of WM cells. It is filed as binding. The conditions noted are these: with or without CXCR4 mutations.
From the text: as §2

The test system of data set [5] is CXCL12-induced ERK phosphorylation of CXCR4 mutant WM cells. Put plainly: CXCL12-induced ERK phosphorylation of CXCR4 mutant WM cells. It is filed as cell-based.
From the text: as §2

Data set [6] concerns CXCL12-induced ERK phosphorylation of AML cells. As to the kind of experiment: CXCL12-induced ERK phosphorylation of AML cells. It is filed as cell-based.
From the text: as §2

In data set [7] the test system is CXCR4-tropic X4-HIV-1 (NL4-3). In kind it is cell-based. To be noted: compared to EPI-X4.
Description: The activity of the peptides was estimated by different assays.
The X4-HIV inhibition assay is designed to measure the activity of the inventive peptides by their efficiency of blocking the infection of tissue culture cells by CXCR4-tropic HIV-1 variants.
HIV-1 inhibition assay. […] For infection of TZM-bl cells in presence of inhibitors, cells were seeded at a density of 1×10^5 cells/ml in 70 μl DMEM containing 2.5% FCS. Compounds were diluted in PBS and 10 μl were added. After 15 minutes of incubation cells were inoculated with 20 μl of diluted virus. Infection rates were determined three days later using Gal-Screen system (Applied Biosystems).
The subject of data set [8] is CXCL12 induced Ca2+-signalling. Put plainly: Ca++ signaling in BCR-ABL-transformed murine bone marrow cells. To be noted: 1 μM. In kind it is cell-based. The protocol: Fifth, it was shown that the peptide derivatives inhibit calcium-signaling. CXCL12 stimulation of CXCR4 expressing B-cells leads to a strong calcium-release. In the presence of CXCR4 antagonists this response is reduced.
For calcium measurement, 1×10^6 BCR-ABL-transformed murine bone marrow cells were incubated with 5 μg/mL of Indo-1 (Molecular Probes) and 0.5 μg/mL of pluronic F-127 (Molecular Probes) in Iscove's medium supplemented with 1% FCS (Pan Biotech) at 37° C. for 45 min. Cells were then washed by centrifugation and the cell pellets were resuspended in Iscove's medium with 1% FCS and treated with the EPI-X4 derivatives (1 μM or 0.5 μM) for 10 minutes at room temperature. Cells were pre-warmed for 5 minutes at 37° C. Calcium flux was assessed by FACS measurement at BD LSR Fortessa. After 30 seconds of baseline recording, CXCR4-dependent calcium signaling was determined by stimulating with 100 ng/ml of mouse SDF-1a (PeproTech).

Data set [9] relates to CXCL12 induced migration of T-cells. As to the kind of experiment: Migration assay (transwell, Jurkat cells). It is filed as cell-based.
Data set [10] concerns CXCL12-induced AKT signaling. Put plainly: ERK/AKT signaling assay in SupT1 cells: AKT phosphorylation. In kind it is cell-based. The method, boiled down:
as §1

The nature of data set [11]: Functional stability assay in human plasma. The conditions noted are these: human plasma, 2 hours. In outline: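 EPI-X4 derivatives at 20 μM final in pooled human plasma or whole blood (EDTA), incubated at 37 °C with shaking for 2 or 8 h. Residual activity was measured by 12G5-APC antibody competition on CXCR4 and compared with a non-incubated t=0 sample. Blood samples were centrifuged to remove cells before the competition assay.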

`CC[C@H](C)[C@H](N)C(=O)N[C@@H](CC(C)C)C(=O)N[C@@H](CCCNC(=N)N)C(=O)N[C@@H](Cc1c[nH]c2ccccc12)C(=O)N[C@@H](CO)C(=O)N[C@@H](CCCNC(=N)N)C(=O)N[C@@H](CCCCN)C(=O)N[C@@H](CC(C)C)C(=O)N1CCC[C@H]1C(=O)N[C@@H](CS)C(=O)N[C@H](C(=O)N[C@@H](CO)C(=O)O)C(C)C` [JM #21]: the “remaining activity in human S9 liver fractions after 2 hours” value in data set [1] was “readily inactivated by liver enzymes”. Moreover, the “reduction of CXCL12-induced ERK signaling” value in data set [2] was determined as 60%. Further, the “migration of WM cells along a CXCL12 gradient” value in data set [3] is reported as “impaired migration of WM cells with or without S338X mutation along a CXCL12 gradient”. For the same compound, the “blocking of CXCR4 12G5 epitope of WM cells” value in [4] is listed as “blocked the CXCR4 12G5 epitope of WM cells in presence or absence of different CXCR4 mutations in a dose dependent manner”. Also, in data set [5], the “CXCL12-induced ERK phosphorylation of CXCR4 mutant WM cells” value is given as “reduced CXCL12-induced ERK phosphorylation of CXCR4 mutant WM cells in a dose-dependent manner”. Moreover, the “CXCL12-induced ERK phosphorylation of AML cells” value in data set [6] is listed as “reduced CXCL12-induced ERK phosphorylation of AML cells”. Further, the “fold more effective inhibition of X4-HIV-1 than EPI-X4” value in data set [7] is reported as approximately 100 fold. Besides, in [8], the “reduction of CXCL12 induced calcium-signaling” value was “much stronger than the reduction seen for WSC02”. Besides, the “inhibition of CXCL12 induced migration of T-cells (in words)” value in data set [9] was “more effective than WSC02”. Moreover, the results for the “reduction of CXCL12-induced AKT signaling” value in [10] (1 μM) and in [10] (10 μM) were “about 50%” and “about 85%”, respectively. In addition, the “blocking of CXCL12 induced signaling (in words)” value in data set [10] (AKT and ERK) is given as “blocked signaling more effectively than WSC02”. Further, the “fold effectiveness in blocking AKT signaling relative to WSC02” value in [10] (compared to WSC02) was “about 10 fold”. Moreover, the “remaining (relative) activity after 2 hours of plasma incubation” value in data set [11] was “completely inactive”.
